The text below walks through data of patent publication US20250375417A1, “OREXIN RECEPTOR 2 (OX2R) AGONIST FOR USE IN NARCOLEPSY TYPE 1 (NT1)” (TAKEDA PHARMACEUTICAL COMPANY LIMITED, priority 2024, published 2025).

Format in all cases: in vivo, human
For data set [1], the system named is participants with NT2. Briefly: Safety (TEAEs), long-term extension (LTE) study, NT2 participants. How it is done: Eligible participants were age 18-70 years, with Epworth Sleepiness Scale (ESS) score>12 and no other current EDS-related medical conditions. Participants were randomized 1:1:1 to daily oral Compound A 2 mg twice 3 hours apart, 2 mg then 5 mg 3 hours later, or placebo. Study endpoints included change from baseline to Week 8 in mean Sleep Onset Latency on the Maintenance of Wakefulness Test (mean SOL-MWT; primary endpoint), ESS total score, and incidence of treatment-emergent adverse events (TEAEs). Participants who completed the placebo-controlled study could enroll in a ˜2-year Long Term Extension (LTE) study. LTE TEAE data up to Jan. 25, 2024 are reported.
This was a phase 2/3 multicenter, dose-blind, long-term extension (LTE) study of Compound A. Participants from controlled studies conducted with Compound A, who had up to a 3-month dosing gap between their parent study and the screening period for this study, were eligible to participate in this study.
Day 1 dosing for all participants occurred in-clinic with PK and safety assessments. Participants who were undergoing nocturnal polysomnography (nPSG) and an MWT during the final assessment of their Compound A parent study had the option of staying overnight in the clinic on Day −1 so they were already in the clinic for Day 1 the following day. […]

The test system of data set [2] is participants with NT2. Briefly: ESS total score, Phase 2 NT2 trial. Conditions: not statistically significant (p>0.05). An excerpt: (§1) In some aspects of the methods described herein, the subject experiences a lower Epworth Sleepiness Scale (ESS) total score after a treatment period compared to an untreated subject. The ESS is a subjective, self-administered scale that has been validated and used extensively as a key endpoint in studies in patients with narcolepsy to measure excessive daytime sleepiness (EDS). The ESS provides individuals with 8 different situations of daily life and asks them how likely they are to fall asleep in those situations (scored 0 to 3) and to try to imagine their likelihood of dozing even if they have not actually been in the identical situation; the scores are summed to give an overall score of 0 to 24. Higher scores indicate stronger subjective daytime sleepiness, and scores below 10 are considered to be within the reference range.
Randomization was stratified by region. Starting on the morning of Day 1, the study drug was administered at approximately the same time each day for 8 weeks.
In this study, the interventions includes: • Dose Regimen 1:2 mg followed by 2 mg approximately 3 hours apart. • Dose Regimen 2:2 mg followed by 5 mg approximately 3 hours apart or 7 mg once daily. • Other products required for the study: placebo.
Eligible participants were age 18-70 years, with Epworth Sleepiness Scale (ESS) score>12 and no other current EDS-related medical conditions. […]

The subject of another data set is participants with NT1. Put plainly: Epworth Sleepiness Scale (ESS), Phase 2 NT1 trial.
Description: as §1
In certain aspects, the ESS is administered to assess sleep propensity on selected days indicated in the Schedule of Activities for the trial. Participants are asked to evaluate their subjective sleepiness based on recalling their most recent daily life experiences.
Randomization was stratified by region. Starting on the morning of Day 1, the study drug was administered at approximately the same time each day for 8 or 12 weeks. […]

Regarding `CCS(=O)(=O)N[C@@H]1[C@H](Cc2cccc(-c3cc(F)cc(F)c3)c2F)N(C(=O)C(C)(C)O)CC1(F)F` [Compound A, N-{(2S,3R)-4,4-difluoro-1-(2-hydroxy-2-methylpropanoyl)-2-[(2,3′,5′-trifluoro[1,1′-biphenyl]-3-yl)methyl]pyrrolidin-3-yl}ethanesulfonamide], the “Participants discontinued due to TEAEs” value in the data set on participants with NT2 [1] is listed as 3. Besides, the “Participants who experienced TEAEs” value in the data set on participants with NT2 [1] (treated participants (41/57), data up to Jan. 25, 2024) is 71.9%. Also, the “ESS total score change from baseline to Week 8 versus placebo” value in the data set with participants with NT2 [2] (2 mg/2 mg) is listed as −0.32 points; in the data set on participants with NT2 [2] (2/5 mg), −3.06 points. In addition, the “Change from baseline to Week 8 in ESS versus placebo” value in the data set on participants with NT1 (all dose groups, adjusted for multiple comparisons) was “statistically significant changes”. Further, the “Participants with ESS≤10” value with participants with NT1 (weeks 4 and 8 (FIG. 4)) is given as “Most participants achieved ESS total score≤10”.
